Calls of active or inactive are those of the source. The rule behind the calls is not given here.
tested on: UPR adaptive arm reporter cells, luciferase luminescence; test: adaptive unfolded protein response reporter activation – cell-based, luciferase luminescence, dose response (AID 489032)

Row | Compound | EC50
1 | COc1cc(NC(=O)c2cncc(-c3ccc(C#N)cc3)c2)cc(C(=O)Nc2cccc(C(F)(F)F)c2)c1 | 46.3 µM (inactive)
2 | c1cc(SC2CCCCC2)cc(-c2nc3cnccn3c2NC2CCCCC2)c1 | 28.9 µM (inactive)
3 | COc1ccc2nc(/C(C#N)=C\c3ccc(Oc4ccc([N+](=O)[O-])cn4)cc3)[nH]c2c1 | > 80 µM (inactive)
4 | COc1cc(OC)c2c(-c3cccc(-c4ccc(CO)cc4)c3)cc(=O)oc2c1 | > 80 µM (inactive)
5 | COc1ccc2nc(NC(=O)c3cccc(-c4cc5ccccc5oc4=O)c3)sc2c1 | > 80 µM (inactive)
6 | CCOc1ccc(C(=O)Nc2cc(-c3nc4ccccc4[nH]3)ccc2Cl)cc1[N+](=O)[O-] | 24.2 µM (inactive)
7 | O=C(NCc1ccccc1Br)c1cccc2c1C(=O)c1ccc(-c3ccc(OC(F)(F)F)cc3)cc1S2(=O)=O | 19.2 µM
8 | CCc1ccc(OCCNc2cc(N3CCNC(C)C3)ccc2[N+](=O)[O-])cc1 (centres undefined) | 18.9 µM
9 | O=C(Nc1nc2ccccc2s1)c1cc2c(s1)-c1ccccc1OC2 | 44.9 µM (inactive)
10 | Cc1ccc(-n2nc3cc(C)c(NC(=S)NC(=O)/C=C/c4ccco4)cc3n2)cc1 | 35.9 µM (inactive)
11 | COc1ccc(C(=O)O/N=C/c2c(C(F)(F)F)nn(C)c2SCc2ccccc2Cl)cc1 | > 80 µM (inactive)
12 | COc1cc([C@@H]2c3cc4c(cc3[C@@H](O)[C@H]3COC(=O)[C@H]23)OCO4)cc(OC)c1O[Si](C)(C)C(C)(C)C | > 80 µM (inactive)
13 | COc1cc(/C=C2\CC(C(C)(C)C)C/C(=C\c3cc(OC)c(OC)c(OC)c3)C2=O)cc(OC)c1OC (centres undefined) | 39.3 µM (inactive)
14 | C/C(=N/NC(=O)c1ccc(C)s1)c1cccc(NC(=O)COc2ccc(Cl)cc2C)c1 | 72.4 µM (inactive)
15 | CC1CCN(Cc2c(C(=O)N/N=C/c3ccc(C(F)(F)F)cc3)nnn2-c2nonc2N)CC1 | > 80 µM (inactive)
16 | CC(=O)c1cccc(Nc2nc(-c3cccc([N+](=O)[O-])c3)cs2)c1 | > 80 µM (inactive)
17 | Cc1c(NC(=O)CSc2ccc(Cl)cc2)cccc1-c1nc2cc(Cl)ccc2o1 | > 80 µM (inactive)
18 | Cc1ccc(NC(=O)c2cc(S(=O)(=O)N(C)C)ccc2N2CCCC2)cc1F | 37.6 µM (inactive)
19 | CC(C)C(=O)N(c1cc2sc(=O)oc2c2ccccc12)S(=O)(=O)c1cccs1 | > 80 µM (inactive)
20 | CC(C)=CCCC1(C)C=Cc2c(c(C)cc3c2[nH]c2cc(O)ccc23)O1 (centres undefined) | > 80 µM (inactive)
21 | CCCCN1C(=O)/C(=C2/Sc3ccc(OC)cc3N2CC)SC1=S | > 80 µM (inactive)
22 | C/C(CC(C)(C)C1CCCCC1)=N\NC(N)=S | > 80 µM (inactive)
23 | CC1(C)CC(=O)C(C=Nc2ccc(C(=O)c3ccccc3)cc2N=CC2=C(O)CC(C)(C)CC2=O)=C(O)C1 | > 80 µM (inactive)

Row | Compound | EC50
24 | C=CCOc1ccc(/C=N/N2C(=O)C(CC(=O)Nc3ccc(F)cc3F)SC2=NC)cc1 (centres undefined) | > 80 µM (inactive)
25 | Cc1cc(C)c2c(c1)/C(=c1/sc3n(c1=O)CN(c1ccccc1)CN=3)C(=O)N2 | 19.2 µM
26 | O=C1NC(=O)N(Cc2ccccc2Cl)C(=O)/C1=C/c1cccs1 | > 80 µM (inactive)
27 | CCC(=O)Nc1nnc(SCC(=O)c2ccc3c(c2)Cc2ccccc2-3)s1 | > 80 µM (inactive)
28 | Nc1nc(SCc2ccc(Cl)cc2Cl)nc2nc3c(cc12)CCCC3 | > 80 µM (inactive)
29 | CCN(CC)c1ccc(N=Cc2c(O)n(-c3ccc(Cl)cc3)c(=O)[nH]c2=O)cc1 | 22.7 µM (inactive)
30 | C#CCn1c(=NC(=O)c2ccc(Cl)s2)sc2cccc(OC)c21 | > 80 µM (inactive)
31 | CN(C)c1ccc(/C=C/[N+](=O)[O-])cc1 | > 80 µM (inactive)
32 | Cc1ccc(Cl)cc1N1CCN(Cc2nc3c(c(=O)[nH]c(=O)n3C)n2CCc2ccccc2)CC1 | > 80 µM (inactive)
33 | Brc1ccc2c(c1)C(c1ccc(N3CCOCC3)cc1)=NNC(c1cccs1)=N2 | 26.4 µM (inactive)
34 | COc1ccccc1Nc1nnc(SCC(=O)NC(=O)Nc2ccc3c(c2)OCCO3)s1 | > 80 µM (inactive)
35 | COc1cc(SC#N)ccc1N=Cc1c(C)[nH]n(-c2ccc(C)c(C)c2)c1=O | > 80 µM (inactive)
36 | COC(=O)c1c(C)oc2ccc(N(C(=O)Oc3ccccc3)S(=O)(=O)c3ccc(Cl)c([N+](=O)[O-])c3)cc12 | 20.1 µM (inactive)
37 | O=C(N/N=C/c1ccccc1Cl)c1[nH]c2ccc(Br)cc2c1-c1ccccc1 | 32.9 µM (inactive)
38 | COc1cc(OC)cc(C(=O)Nc2ccc3nc4n(c(=O)c3c2)CCCCC4)c1 | 31.9 µM (inactive)
39 | Cc1nc(NC(=O)CSc2ccc(-c3nc4ccccc4[nH]3)cn2)sc1C | > 80 µM (inactive)
40 | COc1ccc(C(=O)/C=C/c2cccs2)c(OC(=O)c2cccc([N+](=O)[O-])c2)c1 | > 80 µM (inactive)
41 | COC(=O)c1sccc1NC(=O)c1cc(-c2cccc(C)c2)nc2ccccc12 | > 80 µM (inactive)
42 | Cc1ccc(C(C(=O)NCc2ccco2)N(C(=O)CNC(=O)c2cccs2)c2c(C)cc(C)cc2C)cc1 (centres undefined) | > 80 µM (inactive)
43 | Nc1nc(-c2cc(O)ccc2[N+](=O)[O-])cc(-c2ccccc2)c1[N+](=O)[O-] | 8.27 µM
44 | COC(=O)c1c(NC(=O)CC2Nc3ccccc3NC2=O)sc(C)c1C (centres undefined) | > 80 µM (inactive)
45 | COc1ccccc1C(=O)NC(=S)NNC(=O)c1sc2ccccc2c1Cl | > 80 µM (inactive)
46 | Oc1cccc2ccc(/C=C/c3ccc(Br)s3)nc12 | > 80 µM (inactive)

Row | Compound | EC50
47 | COc1ccccc1N=Cc1c(O)c2ccccc2oc1=O | 16.4 µM
48 | CCOc1ccc(C(=O)Nc2ccc(NC(=O)c3ccco3)c(Cl)c2)cc1Cl | > 80 µM (inactive)
49 | O=C(COC(=O)/C=C/c1cn(-c2ccccc2)nc1-c1cccnc1)Nc1ccc(Cl)cc1Cl | > 80 µM (inactive)
50 | Cc1ccccc1NC(=O)c1ccc(N/N=C/c2ccccc2O)c([N+](=O)[O-])c1 | > 80 µM (inactive)
51 | COc1ccc(-c2c(-c3cc(OC)cc(OC)c3)n(C)c3ccc(-c4cnc(N)nc4)cc23)cc1 | 36.1 µM (inactive)
52 | Cc1cccc(NC(=O)CSc2nc(C)c(CC(=O)c3ccc(Br)cc3)c(C)c2C#N)c1C | > 80 µM (inactive)
53 | Cc1ccc(CNC(=O)c2ccc3c(=O)n4c(-c5ccc(C)cc5)csc4nc3c2)cc1 | > 80 µM (inactive)
54 | CN(C)CCCN(C(=O)c1ccc(S(=O)(=O)N2CCc3ccccc3C2)cc1)c1nc2ccc(F)cc2s1 | > 80 µM (inactive)
55 | CCc1nc(N=Nc2c(O)[nH]c3ccccc23)c2c3c(sc2n1)CCC3 | 16.1 µM
56 | COc1ccc(C(=O)Oc2cc3c4c(c2)C(C)=CC(C)(C)N4C(=O)C3=O)cc1OC | 25.4 µM (inactive)
57 | CCc1ccc2[nH]c3nc(SCC(=O)NNC(=O)c4ccc(C(C)(C)C)cc4)nnc3c2c1 | 32.3 µM (inactive)
58 | Cc1ccc2nc(/C(C#N)=C/c3ccc(O)c(O)c3)[nH]c2c1 | > 80 µM (inactive)
59 | CC(C)(C)c1ccc(C(=O)Nc2ccc(O)c3c(=O)cc(-c4cccc(Cl)c4)oc23)cc1 | > 80 µM (inactive)
60 | CC(C)N=C(NS(=O)(=O)c1ccccc1)C(Cl)(Cl)Cl | > 80 µM (inactive)
61 | O=S(=O)(c1ccc2nc(-c3ccccc3)[nH]c2c1)N1CCN(c2ccc(Cl)cc2)CC1 | > 80 µM (inactive)
62 | Cc1ccc(-n2nc3c(N4CCC(C(=O)NCCc5cccs5)CC4)nnc(C)c3c2C)cc1 | > 80 µM (inactive)
63 | CC(C)Cn1c2c(c(=O)[nH]c1=O)C(C(F)(F)F)(C(F)(F)F)N=C(CCC1CCCCC1)N2 | > 80 µM (inactive)
64 | Cc1ccc(Cc2cnc(NC(=O)/C(C#N)=C/c3ccc(-c4cccc([N+](=O)[O-])c4)o3)s2)cc1 | 18.1 µM
65 | CCOc1cc(/C=N/N=C(/N)c2nonc2N)cc(Br)c1OCc1ccc(Cl)cc1 | > 80 µM (inactive)
66 | NC(=S)N/N=C/c1ccc(C23CC4CC(CC(C4)C2)C3)cc1 | 40 µM (inactive)
67 | COc1ccc(-c2ccc(C#N)c(SCC(=O)Nc3sc4c(c3C#N)CCC4)n2)cc1OC | > 80 µM (inactive)
68 | Cc1ccc2c(c1)C(=O)C(=O)N2Cc1ccc(Cl)cc1 | 57.2 µM (inactive)
69 | Cc1ccc(-c2nnn(CC(=O)Nc3ccc(S(=O)(=O)N4CCC(C)CC4)cc3)n2)cc1 | > 80 µM (inactive)

Row | Compound | EC50
70 | O=C(Cn1c2ccc(F)cc2c2nc3n(c(=O)c21)CCS3)Nc1ccc(Cl)cc1F | > 80 µM (inactive)
71 | CCC1(c2ccc(F)cc2)NC(=O)N(CC(=O)Nc2ccc(-c3nc4ccc(C)cc4s3)cc2)C1=O (centres undefined) | > 80 µM (inactive)
72 | O=C(CSc1nc2ccccc2c(=O)n1-c1ccccc1)N1CCc2ccccc21 | > 80 µM (inactive)
73 | O=[N+]([O-])c1ccc(N/N=C/c2ccc(OCc3cccc4ccccc34)cc2)nc1 | > 80 µM (inactive)
74 | O=C(COC(=O)c1ccc2[nH]c3c(c2c1)CCCC3)Nc1ccccc1Cl | > 80 µM (inactive)
75 | CCc1cc2c(C)ccc(C)c2nc1SCC(=O)Nc1c[nH]c(=O)[nH]c1=O | > 80 µM (inactive)
76 | CCN=C1S/C(=C\c2cn(CC(=O)NCc3ccco3)c3ccccc23)C(=O)N1CC | > 80 µM (inactive)
77 | Cn1c(Cl)cnc1C1CC(=O)c2cc(Cl)ccc2O1 (centres undefined) | 18.9 µM
78 | CCOC(=O)/C(=N\Nc1ccc(C(C)=O)cc1)c1csc(Nc2ccccc2)n1 | > 80 µM (inactive)
79 | O=C(CSCc1ccc(Cl)cc1)Nc1ccc(-c2nnc(-c3ccccc3)o2)cc1 | > 80 µM (inactive)
80 | NC1=NC[C@@H](CC2CCCCC2)N1CCc1cc(C(F)(F)F)cc(C(F)(F)F)c1 | > 80 µM (inactive)
81 | Cc1cccc(NC(=O)c2nc[nH]c2C(=O)Nc2ccccc2[N+](=O)[O-])c1 | > 80 µM (inactive)
82 | O=[N+]([O-])c1ccc(N/N=C/c2cccc(O)c2O)c(S(=O)(=O)N2CCOCC2)c1 | 21.2 µM (inactive)
83 | NCCc1c(-c2ccccc2)n(-c2ccccc2)c2ccccc12 | > 80 µM (inactive)
84 | COc1ccc(NC(=O)c2sc3nc(N4CCOCC4)c4c(c3c2N)CC(C)(C)OC4)c(OC)c1 | > 80 µM (inactive)
85 | FC(F)(F)c1nnc2c(Sc3ccc(Cl)cc3)nc3ccccc3n12 | > 80 µM (inactive)
86 | O=C(NCCc1ccc(O)c(O)c1)C1COc2ccccc2O1 (centres undefined) | 66.1 µM (inactive)
87 | Oc1cc(-c2cccnc2)cc2cccnc12 | > 80 µM (inactive)
88 | CCOC(=O)C(=CNc1nc(-c2ccccc2)c(C(=O)Nc2ccc(-c3ccccc3)cc2)s1)C(=O)OCC | 24.7 µM (inactive)
89 | CCN(CC)c1ccc(C(=O)OCC(=O)Nc2cc3oc4ccccc4c3cc2OC)cc1 | 25.8 µM (inactive)

Reference: PubChem BioAssay AID489032 (Sanford-Burnham Center for Chemical Genomics, 2010)
